Assay results as given in article PMC8633983, “GTP binding to translation factor eIF2B stimulates its guanine nucleotide exchange activity” (iScience, 2021).

Molecular target: T1, eIF2Bγ (in eIF2B complex) (Saccharomyces cerevisiae, UniProt P09032)
T1 construct: gene GCD1; purified eIF2B complex; with eIF2Bε (GCD6) and the other eIF2B subunits
Test: competition filter binding against […]-GTP

T1 sequence (P09032 whole entry): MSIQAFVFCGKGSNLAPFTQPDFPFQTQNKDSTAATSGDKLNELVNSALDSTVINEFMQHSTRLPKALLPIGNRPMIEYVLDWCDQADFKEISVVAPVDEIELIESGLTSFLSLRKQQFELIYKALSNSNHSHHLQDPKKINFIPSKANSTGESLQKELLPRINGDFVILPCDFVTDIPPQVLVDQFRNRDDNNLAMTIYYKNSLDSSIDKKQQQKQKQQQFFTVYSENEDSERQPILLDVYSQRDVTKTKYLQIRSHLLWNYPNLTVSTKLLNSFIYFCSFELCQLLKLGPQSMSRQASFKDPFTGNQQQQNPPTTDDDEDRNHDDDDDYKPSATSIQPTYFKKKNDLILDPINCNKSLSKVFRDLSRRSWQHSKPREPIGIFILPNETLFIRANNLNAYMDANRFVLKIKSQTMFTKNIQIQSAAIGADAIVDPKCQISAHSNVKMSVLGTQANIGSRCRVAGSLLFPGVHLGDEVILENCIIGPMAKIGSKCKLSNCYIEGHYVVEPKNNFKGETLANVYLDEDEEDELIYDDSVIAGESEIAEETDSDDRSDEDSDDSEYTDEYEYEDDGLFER
T1 sequence (P32501 whole entry partner): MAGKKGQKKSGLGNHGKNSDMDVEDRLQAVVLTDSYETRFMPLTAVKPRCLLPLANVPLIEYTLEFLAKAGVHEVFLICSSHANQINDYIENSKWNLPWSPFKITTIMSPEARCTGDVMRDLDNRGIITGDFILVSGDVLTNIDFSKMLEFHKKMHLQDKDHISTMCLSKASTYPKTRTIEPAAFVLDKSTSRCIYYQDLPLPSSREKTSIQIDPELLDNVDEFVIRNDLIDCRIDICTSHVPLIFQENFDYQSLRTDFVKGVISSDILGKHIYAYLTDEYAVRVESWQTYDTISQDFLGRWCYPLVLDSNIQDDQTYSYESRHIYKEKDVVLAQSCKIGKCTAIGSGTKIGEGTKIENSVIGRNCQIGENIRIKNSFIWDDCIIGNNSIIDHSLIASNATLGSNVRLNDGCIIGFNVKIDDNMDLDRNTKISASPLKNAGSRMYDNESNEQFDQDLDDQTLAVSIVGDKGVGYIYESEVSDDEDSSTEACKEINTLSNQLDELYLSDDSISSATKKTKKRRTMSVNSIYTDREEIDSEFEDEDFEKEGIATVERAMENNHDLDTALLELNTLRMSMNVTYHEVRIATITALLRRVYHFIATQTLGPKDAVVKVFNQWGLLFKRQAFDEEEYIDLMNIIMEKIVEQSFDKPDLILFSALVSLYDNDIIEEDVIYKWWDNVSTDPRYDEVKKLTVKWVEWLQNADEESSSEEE
T1 sequence (P14741 2-305 partner): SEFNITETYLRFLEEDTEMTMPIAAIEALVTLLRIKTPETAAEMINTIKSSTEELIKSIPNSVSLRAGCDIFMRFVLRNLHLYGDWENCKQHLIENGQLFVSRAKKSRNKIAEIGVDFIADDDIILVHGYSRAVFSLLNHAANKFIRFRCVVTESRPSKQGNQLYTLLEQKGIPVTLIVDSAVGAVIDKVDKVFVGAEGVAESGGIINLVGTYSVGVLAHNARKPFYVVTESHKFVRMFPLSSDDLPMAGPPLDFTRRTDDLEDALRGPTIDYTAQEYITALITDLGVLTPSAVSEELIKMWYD
T1 sequence (P32502 whole entry partner): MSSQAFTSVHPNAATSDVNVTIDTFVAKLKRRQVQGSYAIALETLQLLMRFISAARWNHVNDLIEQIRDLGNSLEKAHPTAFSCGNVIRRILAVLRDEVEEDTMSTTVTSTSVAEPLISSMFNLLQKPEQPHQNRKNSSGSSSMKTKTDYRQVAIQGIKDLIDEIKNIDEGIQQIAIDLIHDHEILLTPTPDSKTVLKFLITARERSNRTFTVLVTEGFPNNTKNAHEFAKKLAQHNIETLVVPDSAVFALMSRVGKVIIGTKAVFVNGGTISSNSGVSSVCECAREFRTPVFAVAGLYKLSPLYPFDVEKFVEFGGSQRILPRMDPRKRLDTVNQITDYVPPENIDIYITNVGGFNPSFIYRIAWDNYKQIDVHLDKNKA
T1 sequence (P12754 2-651 partner): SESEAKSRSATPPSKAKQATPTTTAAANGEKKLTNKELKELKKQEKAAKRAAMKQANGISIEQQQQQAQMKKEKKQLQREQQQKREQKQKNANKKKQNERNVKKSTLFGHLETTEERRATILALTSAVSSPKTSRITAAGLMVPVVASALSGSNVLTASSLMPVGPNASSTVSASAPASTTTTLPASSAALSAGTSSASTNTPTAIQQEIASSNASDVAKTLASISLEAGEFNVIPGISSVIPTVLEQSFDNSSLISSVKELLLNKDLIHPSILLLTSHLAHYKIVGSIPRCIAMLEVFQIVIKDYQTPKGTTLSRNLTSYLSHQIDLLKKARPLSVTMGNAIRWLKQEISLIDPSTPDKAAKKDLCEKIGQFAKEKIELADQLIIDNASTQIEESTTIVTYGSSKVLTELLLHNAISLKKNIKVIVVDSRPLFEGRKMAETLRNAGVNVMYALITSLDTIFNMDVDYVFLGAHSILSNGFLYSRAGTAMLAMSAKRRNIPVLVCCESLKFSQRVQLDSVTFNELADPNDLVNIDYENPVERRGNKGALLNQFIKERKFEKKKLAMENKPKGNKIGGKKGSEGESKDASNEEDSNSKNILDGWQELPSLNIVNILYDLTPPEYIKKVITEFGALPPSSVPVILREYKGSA

Compound | competition filter binding against 32P-GTP
Nc1ncnc2c1ncn2[C@@H]1O[C@H](COP(=O)(O)OP(=O)(O)OP(=O)(O)O)[C@@H](O)[C@H]1O [ATP] | suggesting eIF2B can bind both ATP and GTP, but with a preference for GTP
Nc1nc2c(ncn2[C@@H]2O[C@H](COP(=O)(O)OP(=O)(O)O)[C@@H](O)[C@H]2O)c(=O)[nH]1 [GDP] | GTP was a more effective competitor than ATP or GDP
